Test results from ChEMBL document CHEMBL4177704, “Synthesis and biological evaluation of water-soluble derivatives of chiral gossypol as HIV fusion inhibitors targeting gp41” (Bioorg Med Chem Lett, 2018).

Tests used:
TZM = assay: (§1) Cytotoxicity against human TZM-bl cells after 72 hrs by MTT assay; format: cell-based; settings: tzm, 72 h
[1] = system: Human immunodeficiency virus 1; assay: Antiviral activity against HIV-1 3B infected in human TZM-bl cells treated for 2 hrs followed by compound washout measured after 2 days by luciferase reporter assay; format: functional, organism-based
[2] = Selectivity index, ratio of CC50 for human TZM-bl cells to IC50 for HIV-1 3B infected in human TZM-bl cells; format: toxicity, cell-based; settings: for selectivity ratio: TZM-bl cells, read-out: Ratio CC50/IC50
[3] = as §1; format: cell-based; settings: TZM-bl cells
[4] = Human immunodeficiency virus 1, 3B, TZM-bl

| Compound | CC50 (TZM) [µM] | IC50 [1] [µM] | Ratio CC50/IC50 [2] | CC50 at 72 h [3] [µM] | IC50 [1, 4] [µM] | selectivity ratio [2] |
| --- | --- | --- | --- | --- | --- | --- |
| Cc1cc2c(c(O)c1-c1c(C)cc3c(c1O)/C(=C/NC(C)C(=O)NC(Cc1ccccc1)C(=O)[O-])C(=O)C(O)=C3C(C)C)/C(=C/NC(C)C(=O)NC(Cc1ccccc1)C(=O)[O-])C(=O)C(O)=C2C(C)C.[Na+].[Na+] (stereo in doubt; (-)-5a) | 33.3 | 1.62 | 20.57 | – | – | – |
| Cc1cc2c(c(O)c1-c1c(C)cc3c(c1O)/C(=C/NC(CC(=O)[O-])C(=O)NC(C)C(=O)[O-])C(=O)C(O)=C3C(C)C)/C(=C/NC(CC(=O)[O-])C(=O)NC(C)C(=O)[O-])C(=O)C(O)=C2C(C)C.[Na+].[Na+].[Na+].[Na+] (single isomer, unassigned; (-)) | 42.6 | 1.25 | 34.1 | – | – | – |
| Cc1cc2c(c(O)c1-c1c(C)cc3c(c1O)/C(=C/N[C@H](C(=O)[O-])C(C)C)C(=O)C(O)=C3C(C)C)/C(=C/N[C@H](C(=O)[O-])C(C)C)C(=O)C(O)=C2C(C)C.[Na+].[Na+] (stereo in doubt; (+)-9b) | – | 5.92 | 10.78 | 63.8 | – | – |
| Cc1cc2c(c(O)c1-c1c(C)cc3c(c1O)/C(=C/N[C@@H](C)C(=O)[O-])C(=O)C(O)=C3C(C)C)/C(=C/N[C@@H](C)C(=O)[O-])C(=O)C(O)=C2C(C)C.[Na+].[Na+] (stereo in doubt; (-)-8a) | 64.2 | 0.35 | 183.29 | – | – | – |
| Cc1cc2c(c(O)c1-c1c(C)cc3c(c1O)/C(=C/N[C@@H]1[C@@H](O)[C@H](O)[C@@H](CO)O[C@H]1O)C(=O)C(O)=C3C(C)C)/C(=C/N[C@@H]1[C@@H](O)[C@H](O)[C@@H](CO)O[C@H]1O)C(=O)C(O)=C2C(C)C (stereo in doubt; (+)-1b) | – | 7.64 | 4.3 | 32.9 | – | – |
| Cc1cc2c(c(O)c1-c1c(C)cc3c(c1O)/C(=C/NC(C)C(=O)NC(Cc1ccccc1)C(=O)[O-])C(=O)C(O)=C3C(C)C)/C(=C/NC(C)C(=O)NC(Cc1ccccc1)C(=O)[O-])C(=O)C(O)=C2C(C)C.[Na+].[Na+] (stereo in doubt; (+)-5b) | – | 6.32 | 7.97 | 50.3 | – | – |
| Cc1cc2c(c(O)c1-c1c(C)cc3c(c1O)/C(=C/NC(C)C(=O)NCC(=O)[O-])C(=O)C(O)=C3C(C)C)/C(=C/NC(C)C(=O)NCC(=O)[O-])C(=O)C(O)=C2C(C)C.[Na+].[Na+] (single isomer, unassigned; (+)) | – | 4.28 | 14.28 | 61.1 | – | – |
| Cc1cc2c(c(O)c1-c1c(C)cc3c(c1O)/C(=C/N[C@@H](C)C(=O)[O-])C(=O)C(O)=C3C(C)C)/C(=C/N[C@@H](C)C(=O)[O-])C(=O)C(O)=C2C(C)C.[Na+].[Na+] (stereo in doubt; (+)-8b) | – | 4.13 | 17.59 | 72.6 | – | – |
| Cc1cc2c(c(O)c1-c1c(C)cc3c(c1O)/C(=C/N[C@H](C(=O)[O-])C(C)C)C(=O)C(O)=C3C(C)C)/C(=C/N[C@H](C(=O)[O-])C(C)C)C(=O)C(O)=C2C(C)C.[Na+].[Na+] (stereo in doubt; (-)-9a) | 49.9 | 0.49 | 101.82 | – | – | – |
| Cc1cc2c(c(O)c1-c1c(C)cc3c(c1O)/C(=C/NCC(=O)NCC(=O)NCC(=O)[O-])C(=O)C(O)=C3C(C)C)/C(=C/NCC(=O)NCC(=O)NCC(=O)[O-])C(=O)C(O)=C2C(C)C.[Na+].[Na+] (stereo in doubt; (-)-6a) | 43.8 | 1.38 | 31.71 | – | – | – |
| Cc1cc2c(c(O)c1-c1c(C)cc3c(c1O)/C(=C/NC(C)S(=O)(=O)[O-])C(=O)C(O)=C3C(C)C)/C(=C/NC(C)S(=O)(=O)[O-])C(=O)C(O)=C2C(C)C.[Na+].[Na+] (single isomer, unassigned; (+)) | – | – | 27.81 | 54.8 | 1.97 | – |
| Cc1cc2c(c(O)c1-c1c(C)cc3c(c1O)/C(=C/NCC(=O)NCC(=O)NCC(=O)[O-])C(=O)C(O)=C3C(C)C)/C(=C/NCC(=O)NCC(=O)NCC(=O)[O-])C(=O)C(O)=C2C(C)C.[Na+].[Na+] (stereo in doubt; (+)-6b) | – | 6.62 | 9.42 | 62.4 | – | – |
| Cc1cc2c(c(O)c1-c1c(C)cc3c(c1O)/C(=C/NC(CC(=O)[O-])C(=O)NC(C)C(=O)[O-])C(=O)C(O)=C3C(C)C)/C(=C/NC(CC(=O)[O-])C(=O)NC(C)C(=O)[O-])C(=O)C(O)=C2C(C)C.[Na+].[Na+].[Na+].[Na+] (stereo in doubt; (+)-4b) | – | 5.35 | 9.56 | 51.2 | – | – |
| Cc1cc2c(c(O)c1-c1c(C)cc3c(c1O)/C(=C/N[C@@H](CC(C)C)C(=O)[O-])C(=O)C(O)=C3C(C)C)/C(=C/N[C@@H](CC(C)C)C(=O)[O-])C(=O)C(O)=C2C(C)C.[Na+].[Na+] (stereo in doubt; (-)-10a) | 53.3 | 0.68 | 78.41 | – | – | – |
| CC[C@H](C)[C@H](N/C=C1\C(=O)C(O)=C(C(C)C)c2cc(C)c(-c3c(C)cc4c(c3O)/C(=C/N[C@H](C(=O)[O-])[C@@H](C)CC)C(=O)C(O)=C4C(C)C)c(O)c21)C(=O)[O-].[Na+].[Na+] (stereo in doubt; (+)-11b) | – | 4.22 | 17.5 | 73.9 | – | – |
| CC[C@H](C)[C@H](N/C=C1\C(=O)C(O)=C(C(C)C)c2cc(C)c(-c3c(C)cc4c(c3O)/C(=C/N[C@H](C(=O)[O-])[C@@H](C)CC)C(=O)C(O)=C4C(C)C)c(O)c21)C(=O)[O-].[Na+].[Na+] (stereo in doubt; (-)-11a) | 62.2 | 0.47 | 132.29 | – | – | – |
| Cc1cc2c(c(O)c1-c1c(C)cc3c(c1O)/C(=C/NC(C)C(=O)NCC(=O)O)C(=O)C(O)=C3C(C)C)/C(=C/NC(C)C(=O)NCC(=O)O)C(=O)C(O)=C2C(C)C (single isomer, unassigned; (-)) | 40.3 | 1.56 | – | – | – | 25.8 |
| Cc1cc2c(c(O)c1-c1c(C)cc3c(c1O)/C(=C/NC(C)C(=O)NC(C)C(=O)NC(C)C(=O)[O-])C(=O)C(O)=C3C(C)C)/C(=C/NC(C)C(=O)NC(C)C(=O)NC(C)C(=O)[O-])C(=O)C(O)=C2C(C)C.[Na+].[Na+] (single isomer, unassigned; (-)) | 39.4 | 1.45 | 27.19 | – | – | – |
| Cc1cc2c(c(O)c1-c1c(C)cc3c(c1O)/C(=C/N[C@@H](Cc1ccccc1)C(=O)[O-])C(=O)C(O)=C3C(C)C)/C(=C/N[C@@H](Cc1ccccc1)C(=O)[O-])C(=O)C(O)=C2C(C)C.[Na+].[Na+] (stereo in doubt; (+)-13b) | – | – | 6.55 | 53.8 | 8.21 | – |
| Cc1cc2c(c(O)c1-c1c(C)cc3c(c1O)/C(=C/NC(C)C(=O)NC(C)C(=O)NC(C)C(=O)[O-])C(=O)C(O)=C3C(C)C)/C(=C/NC(C)C(=O)NC(C)C(=O)NC(C)C(=O)[O-])C(=O)C(O)=C2C(C)C.[Na+].[Na+] (single isomer, unassigned; (+)) | – | 6.39 | 9.19 | 58.7 | – | – |
| Cc1cc2c(c(O)c1-c1c(C)cc3c(c1O)/C(=C/N[C@@H](CC(C)C)C(=O)[O-])C(=O)C(O)=C3C(C)C)/C(=C/N[C@@H](CC(C)C)C(=O)[O-])C(=O)C(O)=C2C(C)C.[Na+].[Na+] (stereo in doubt; (+)-10b) | – | 7.16 | 8.4 | 60.1 | – | – |
| Cc1cc2c(c(O)c1-c1c(C)cc3c(c1O)/C(=C/N[C@@H](Cc1c[nH]c4ccccc14)C(=O)[O-])C(=O)C(O)=C3C(C)C)/C(=C/N[C@@H](Cc1c[nH]c3ccccc13)C(=O)[O-])C(=O)C(O)=C2C(C)C.[Na+].[Na+] (stereo in doubt; (-)-12a) | 48.2 | 1.08 | 44.66 | – | – | – |
| Cc1cc2c(c(O)c1-c1c(C)cc3c(c1O)/C(=C/N[C@@H](Cc1c[nH]c4ccccc14)C(=O)[O-])C(=O)C(O)=C3C(C)C)/C(=C/N[C@@H](Cc1c[nH]c3ccccc13)C(=O)[O-])C(=O)C(O)=C2C(C)C.[Na+].[Na+] (stereo in doubt; (+)-12b) | – | 9.06 | 6.29 | 57 | – | – |
| Cc1cc2c(c(O)c1-c1c(C)cc3c(c1O)/C(=C/N[C@@H](Cc1ccccc1)C(=O)O)C(=O)C(O)=C3C(C)C)/C(=C/N[C@@H](Cc1ccccc1)C(=O)O)C(=O)C(O)=C2C(C)C (stereo in doubt; (-)-13a) | 37.7 | 6.99 | – | – | – | 5.39 |
| Cc1cc2c(c(O)c1-c1c(C)cc3c(c1O)/C(=C/NC(C)C(=O)NC(C)C(=O)[O-])C(=O)C(O)=C3C(C)C)/C(=C/NC(C)C(=O)NC(C)C(=O)[O-])C(=O)C(O)=C2C(C)C.[Na+].[Na+] (stereo in doubt; (+)-3b) | – | 5.82 | 10.22 | 59.5 | – | – |
